From patent US9273040B2 (Merck Sharp & Dohme Corp., priority 2011, dated 2016)

Columns and labels:
Format in all cases: cell-based
[1] = target: T1, human Nav1.5 channels stably expressed in HEK 293 cells (Homo sapiens, UniProt Q14524); assay: IonWorks Quattro automated patch-clamp, sodium current, inactivated state block; details: selectivity over Nav1.5
T1 construct: expressed in transfected cells
Procedure: (§1) Compounds were tested on human Nav1.7 and Nav1.5 channels stably expressed in HEK 293 cells. […] Cells were sealed on a planar substrate using the Population Patch Plate (PPC) technology. Electrical access was obtained using both nystatin and amphotericin. A double-pulse protocol was used for the determination of IC50 values for inactivated state block. Nav1.7 and Nav1.5 expressing cells were voltage clamped at −100 mV and −110 mV, respectively. A depolarizing prepulse to −10 mV (Nav1.7) or −30 mV (Nav1.5) for 1000 ms followed by a 10 ms repolarization to −100 mV (Nav1.7) or −110 mV (Nav1.5) was given to generate fractional channel inactivation of ˜50%, followed by a 10 ms test pulse to −10 mV (Nav1.7) or −30 mV (Nav1.5) to measure peak current in control conditions and after compound addition. The following recording solutions were used (mM). External: 150 NaCl, 2 CaCl2, 5 KCl, 1 Mg Cl2, 10 HEPES, 12 Dextrose; internal: 120 CsF, 30 CsCl, 10 EGTA, 5 HEPES, 5 NaF, 2 MgCl2.
(§2) For all electrophysiology experiments, offline analysis was used to correct for current rundown and to determine percent inhibition as a function of drug concentration. IC50 values were determined by fitting to the Hill equation.

[2] = target: T2, human Nav1.7 channels stably expressed in HEK 293 cells (Homo sapiens, UniProt Q15858); assay: as above; details: read-out: potency for the Nav 1.7 sodium ion channel (as measured by IonWorks)
T2 construct: expressed in transfected cells
T2 sequence (Q15858 whole entry): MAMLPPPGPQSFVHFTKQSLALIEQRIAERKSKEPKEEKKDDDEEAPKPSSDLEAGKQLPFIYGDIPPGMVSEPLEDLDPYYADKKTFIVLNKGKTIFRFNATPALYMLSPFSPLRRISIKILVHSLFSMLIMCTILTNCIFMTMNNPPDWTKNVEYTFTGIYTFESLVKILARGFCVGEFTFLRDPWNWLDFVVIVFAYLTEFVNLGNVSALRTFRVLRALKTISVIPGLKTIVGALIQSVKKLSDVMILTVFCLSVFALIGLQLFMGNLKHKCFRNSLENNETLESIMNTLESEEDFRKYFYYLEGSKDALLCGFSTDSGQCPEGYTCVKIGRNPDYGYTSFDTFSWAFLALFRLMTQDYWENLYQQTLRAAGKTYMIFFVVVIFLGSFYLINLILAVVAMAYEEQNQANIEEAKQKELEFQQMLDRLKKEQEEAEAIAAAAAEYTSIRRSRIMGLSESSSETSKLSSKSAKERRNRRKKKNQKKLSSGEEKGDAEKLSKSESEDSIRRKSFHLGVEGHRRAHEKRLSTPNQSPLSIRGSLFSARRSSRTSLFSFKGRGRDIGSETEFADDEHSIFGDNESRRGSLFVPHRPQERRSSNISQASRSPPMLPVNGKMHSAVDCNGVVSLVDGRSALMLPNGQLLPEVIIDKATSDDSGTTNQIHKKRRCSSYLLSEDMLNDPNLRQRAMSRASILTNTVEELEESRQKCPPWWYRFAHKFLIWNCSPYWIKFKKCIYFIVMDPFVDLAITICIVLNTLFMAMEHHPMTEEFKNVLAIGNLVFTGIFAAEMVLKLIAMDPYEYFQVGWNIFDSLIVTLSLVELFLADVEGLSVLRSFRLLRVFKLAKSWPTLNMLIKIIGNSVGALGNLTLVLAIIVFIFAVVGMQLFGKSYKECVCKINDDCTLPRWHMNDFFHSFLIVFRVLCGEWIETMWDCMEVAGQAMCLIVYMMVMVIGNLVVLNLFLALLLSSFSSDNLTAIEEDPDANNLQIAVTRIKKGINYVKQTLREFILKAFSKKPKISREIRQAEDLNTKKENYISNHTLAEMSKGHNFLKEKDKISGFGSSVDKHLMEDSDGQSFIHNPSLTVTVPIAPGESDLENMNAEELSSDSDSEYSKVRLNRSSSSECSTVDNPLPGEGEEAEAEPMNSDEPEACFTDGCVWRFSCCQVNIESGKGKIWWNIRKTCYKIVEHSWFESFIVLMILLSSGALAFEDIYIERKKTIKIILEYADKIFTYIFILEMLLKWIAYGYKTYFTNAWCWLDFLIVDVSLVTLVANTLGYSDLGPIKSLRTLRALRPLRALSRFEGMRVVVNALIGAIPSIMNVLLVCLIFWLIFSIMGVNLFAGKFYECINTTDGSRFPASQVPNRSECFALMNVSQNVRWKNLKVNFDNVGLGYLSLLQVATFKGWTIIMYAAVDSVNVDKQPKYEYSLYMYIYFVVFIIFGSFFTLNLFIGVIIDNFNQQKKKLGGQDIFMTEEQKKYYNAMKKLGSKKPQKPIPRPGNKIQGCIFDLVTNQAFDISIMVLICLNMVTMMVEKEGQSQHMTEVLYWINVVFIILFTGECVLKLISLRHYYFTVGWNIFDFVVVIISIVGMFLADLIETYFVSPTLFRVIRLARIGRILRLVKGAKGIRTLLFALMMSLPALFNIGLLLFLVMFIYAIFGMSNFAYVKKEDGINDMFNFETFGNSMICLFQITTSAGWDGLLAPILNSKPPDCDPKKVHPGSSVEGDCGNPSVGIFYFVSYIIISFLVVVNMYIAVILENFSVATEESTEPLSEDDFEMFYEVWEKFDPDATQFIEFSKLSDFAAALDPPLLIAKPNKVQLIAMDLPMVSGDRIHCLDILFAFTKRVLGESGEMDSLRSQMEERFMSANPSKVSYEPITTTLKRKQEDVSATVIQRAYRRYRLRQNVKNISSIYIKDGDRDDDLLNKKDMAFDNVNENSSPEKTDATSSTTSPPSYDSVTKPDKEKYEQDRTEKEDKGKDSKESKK
Procedure: as §1, §2

[3] = target: T1, human Nav1.5 channels stably expressed in HEK 293 cells; assay: PatchXpress 7000 automated patch-clamp, sodium current; details: selectivity over Nav1.5
Method in brief: (§3)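 IC50 values came from Hill-equation fits of rundown-corrected inhibition. PatchXpress recordings at 22° C held cells 20 mV negative to V0.5 inact and applied 10 Hz trains of 30 ms steps to −20 mV (Nav1.7) or an 8000 ms prepulse 7 mV positive to V0.5 inact. […]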

[4] = target: T2, human Nav1.7 channels stably expressed in HEK 293 cells; assay: as above; details: 22° C., read-out: potency for the Nav 1.7 sodium ion channel (as measured by PatchXpress)
Method in brief: as §3

T1 sequence (Q14524 whole entry): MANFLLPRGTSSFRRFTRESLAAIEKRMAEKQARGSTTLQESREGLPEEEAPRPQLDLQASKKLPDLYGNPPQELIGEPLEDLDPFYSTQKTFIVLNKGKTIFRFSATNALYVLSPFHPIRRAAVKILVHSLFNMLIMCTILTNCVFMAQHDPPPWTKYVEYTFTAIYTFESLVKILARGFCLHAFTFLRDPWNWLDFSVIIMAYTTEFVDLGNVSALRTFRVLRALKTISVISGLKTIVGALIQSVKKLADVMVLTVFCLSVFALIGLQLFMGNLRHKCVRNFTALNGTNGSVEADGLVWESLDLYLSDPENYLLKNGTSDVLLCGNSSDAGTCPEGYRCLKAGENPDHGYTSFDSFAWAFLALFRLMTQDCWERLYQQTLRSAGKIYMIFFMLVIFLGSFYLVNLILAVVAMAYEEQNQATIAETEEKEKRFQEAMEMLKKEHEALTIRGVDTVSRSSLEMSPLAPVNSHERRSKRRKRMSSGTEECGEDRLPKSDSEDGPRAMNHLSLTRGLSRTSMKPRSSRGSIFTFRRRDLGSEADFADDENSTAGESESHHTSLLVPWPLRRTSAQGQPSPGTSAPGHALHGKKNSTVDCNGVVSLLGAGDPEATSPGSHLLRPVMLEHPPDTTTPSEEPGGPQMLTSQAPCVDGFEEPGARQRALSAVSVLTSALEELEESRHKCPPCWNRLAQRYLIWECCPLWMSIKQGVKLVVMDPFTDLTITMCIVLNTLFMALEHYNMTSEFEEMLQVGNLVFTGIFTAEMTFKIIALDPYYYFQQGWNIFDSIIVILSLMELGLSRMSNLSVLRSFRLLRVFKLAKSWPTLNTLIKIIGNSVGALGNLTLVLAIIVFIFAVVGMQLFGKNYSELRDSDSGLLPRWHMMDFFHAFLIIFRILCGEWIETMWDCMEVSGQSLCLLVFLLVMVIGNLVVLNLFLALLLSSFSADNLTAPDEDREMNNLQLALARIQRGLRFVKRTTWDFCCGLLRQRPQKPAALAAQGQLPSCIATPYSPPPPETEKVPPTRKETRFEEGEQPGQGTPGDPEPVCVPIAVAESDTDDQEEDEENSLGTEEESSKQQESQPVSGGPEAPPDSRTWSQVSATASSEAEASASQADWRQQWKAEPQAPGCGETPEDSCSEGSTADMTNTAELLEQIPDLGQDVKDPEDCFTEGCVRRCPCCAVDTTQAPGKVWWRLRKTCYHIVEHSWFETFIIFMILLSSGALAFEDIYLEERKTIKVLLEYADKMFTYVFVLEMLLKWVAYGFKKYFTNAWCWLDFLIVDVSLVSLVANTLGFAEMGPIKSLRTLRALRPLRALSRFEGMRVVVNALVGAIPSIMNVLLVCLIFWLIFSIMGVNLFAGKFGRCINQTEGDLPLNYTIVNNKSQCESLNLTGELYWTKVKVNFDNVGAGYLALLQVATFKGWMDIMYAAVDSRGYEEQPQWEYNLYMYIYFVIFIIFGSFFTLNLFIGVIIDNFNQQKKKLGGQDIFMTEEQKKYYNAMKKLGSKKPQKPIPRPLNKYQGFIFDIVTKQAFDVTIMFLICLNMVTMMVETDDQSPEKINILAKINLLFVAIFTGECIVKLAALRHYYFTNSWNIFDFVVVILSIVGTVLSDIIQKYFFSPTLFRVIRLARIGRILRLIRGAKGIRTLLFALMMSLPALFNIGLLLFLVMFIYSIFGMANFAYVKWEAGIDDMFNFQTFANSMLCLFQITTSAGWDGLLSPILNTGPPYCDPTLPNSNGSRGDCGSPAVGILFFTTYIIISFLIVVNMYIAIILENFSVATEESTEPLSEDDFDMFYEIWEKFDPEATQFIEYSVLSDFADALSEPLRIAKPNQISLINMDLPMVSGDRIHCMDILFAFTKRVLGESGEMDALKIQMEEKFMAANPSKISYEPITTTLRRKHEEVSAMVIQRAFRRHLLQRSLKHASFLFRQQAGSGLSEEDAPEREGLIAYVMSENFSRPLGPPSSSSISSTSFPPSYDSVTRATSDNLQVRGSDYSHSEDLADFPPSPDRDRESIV

| Compound | ratio of Nav 1.5:Nav 1.7 potency, determined by IonWorks measurement [1] | IC50 [2] | ratio of Nav 1.5:Nav 1.7 potency, determined by PatchXpress measurement [3] | IC50 [4] |
| --- | --- | --- | --- | --- |
| NCc1ccc(Cl)cc1Cn1c(=O)oc2cc(S(=O)(=O)Nc3ncns3)ccc21 [Compound 1-15, 3-[2-(aminomethyl)-5-chlorobenzyl]-2-oxo-N-1,2,4-thiadiazol-5-yl-2,3-dihydro-1,3-benzoxazole-6-sulfonamide] | > 55 | 605 nM |  |  |
| O=c1oc2cc(S(=O)(=O)Nc3ncns3)ccc2n1Cc1cccc2c1CCNC2 [Compound 1-16, 2-oxo-3-(1,2,3,4-tetrahydroisoquinolin-5-ylmethyl)-N-1,2,4-thiadiazol-5-yl-2,3-dihydro-1,3-benzoxazole-6-sulfonamide] |  | 1690 nM | > 9 | 3210 nM |
| O=c1oc2cc(S(=O)(=O)Nc3ncns3)ccc2n1Cc1cccc2ccncc12 [Compound 1-17, 3-(isoquinolin-8-ylmethyl)-2-oxo-N-1,2,4-thiadiazol-5-yl-2,3-dihydro-1,3-benzoxazole-6-sulfonamide] | 65 | 216 nM |  |  |
| O=c1oc2cc(S(=O)(=O)Nc3ncns3)ccc2n1Cc1ccccc1C1=CCCNC1 [Compound 3-6, 2-oxo-3-[2-(1,2,5,6-tetrahydropyridin-3-yl)benzyl]-N-1,2,4-thiadiazol-5-yl-2,3-dihydro-1,3-benzoxazole-6-sulfonamide] |  | 287 nM | > 91 | 329 nM |
| O=c1oc2cc(S(=O)(=O)Nc3ncns3)ccc2n1Cc1ccccc1-c1ccccc1N1CCNCC1 [Compound 3-9, 2-oxo-3-[(2′-piperazin-1-ylbiphenyl-2-yl)methyl]-N-1,2,4-thiadiazol-5-yl-2,3-dihydro-1,3-benzoxazole-6-sulfonamide] | > 59 | 563 nM |  |  |
| O=c1oc2cc(S(=O)(=O)Nc3ncns3)ccc2n1Cc1ccccc1-c1ccnc(CN2CCCCC2)c1 [Compound 3-10, 2-oxo-3-{2-[2-(piperidin-1-ylmethyl)pyridin-4-yl]benzyl}-N-1,2,4-thiadiazol-5-yl-2,3-dihydro-1,3-benzoxazole-6-sulfonamide] |  | 1740 nM |  |  |
| O=c1oc2cc(S(=O)(=O)Nc3ncns3)ccc2n1Cc1cccc(-c2ccc3c(c2)CNCC3)c1 [Compound 3-12, 2-oxo-3-[3-(1,2,3,4-tetrahydroisoquinolin-7-yl)benzyl]-N-1,2,4-thiadiazol-5-yl-2,3-dihydro-1,3-benzoxazole-6-sulfonamide] |  | 287 nM | 55 | 545 nM |
| O=c1oc2cc(S(=O)(=O)Nc3ncns3)ccc2n1Cc1cccc(-c2cccc3c2CNCC3)c1 [Compound 3-13, 2-oxo-3-[3-(1,2,3,4-tetrahydroisoquinolin-8-yl)benzyl]-N-1,2,4-thiadiazol-5-yl-2,3-dihydro-1,3-benzoxazole-6-sulfonamide] | > 83 | 395 nM |  |  |
| O=c1oc2cc(S(=O)(=O)Nc3ncns3)ccc2n1Cc1cccc(-c2cccc3c2CCNC3)c1 [Compound 3-14, 2-oxo-3-[3-(1,2,3,4-tetrahydroisoquinolin-5-yl)benzyl]-N-1,2,4-thiadiazol-5-yl-2,3-dihydro-1,3-benzoxazole-6-sulfonamide] | 35 | 430 nM |  |  |
| O=c1oc2cc(S(=O)(=O)Nc3ncns3)ccc2n1Cc1cccc(C2=CCCNC2)c1 [Compound 3-15, 2-oxo-3-[3-(1,2,5,6-tetrahydropyridin-3-yl)benzyl]-N-1,2,4-thiadiazol-5-yl-2,3-dihydro-1,3-benzoxazole-6-sulfonamide] |  | 646 nM |  |  |
| O=c1oc2cc(S(=O)(=O)Nc3ncns3)ccc2n1Cc1cccc(C2=CCNCC2)c1 [Compound 3-16, 2-oxo-3-[3-(1,2,3,6-tetrahydropyridin-4-yl)benzyl]-N-1,2,4-thiadiazol-5-yl-2,3-dihydro-1,3-benzoxazole-6-sulfonamide] | > 43 | 759 nM |  |  |
| O=c1oc2cc(S(=O)(=O)Nc3ncns3)ccc2n1Cc1cccc(C2=CCNCCC2)c1 [Compound 3-17, 2-oxo-3-[3-(2,5,6,7-tetrahydro-1H-azepin-4-yl)benzyl]-N-1,2,4-thiadiazol-5-yl-2,3-dihydro-1,3-benzoxazole-6-sulfonamide] | > 40 | 827 nM |  |  |
| O=c1oc2cc(S(=O)(=O)Nc3ncns3)ccc2n1Cc1cccc(C2=CC3CCC(C2)N3)c1 (centres unmarked) [Compound 3-18, 3-[3-(8-azabicyclo[3.2.1]oct-2-en-3-yl)benzyl]-2-oxo-N-1,2,4-thiadiazol-5-yl-2,3-dihydro-1,3-benzoxazole-6-sulfonamide] |  | 1330 nM |  |  |
| C[C@@H](c1ccccc1)n1c(=O)oc2cc(S(=O)(=O)Nc3ncns3)ccc21 [Compound 4-8, 2-oxo-3-[(1S)-1-phenylethyl]-N-1,2,4-thiadiazol-5-yl-2,3-dihydro-1,3-benzoxazole-6-sulfonamide] | > 22 | 1480 nM |  |  |
| O=c1oc2cc(S(=O)(=O)Nc3ncns3)ccc2n1C(c1ccccc1)c1ncco1 (centres unmarked) [Compound 4-10, 3-[1,3-oxazol-2-yl(phenyl)methyl]-2-oxo-N-1,2,4-thiadiazol-5-yl-2,3-dihydro-1,3-benzoxazole-6-sulfonamide] |  | 1330 nM | > 47 | 643 nM |
| O=c1oc2cc(S(=O)(=O)Nc3ncns3)ccc2n1C(c1ccccc1)C1CC1 (centres unmarked) [Compound 4-12, 3-[cyclopropyl(phenyl)methyl]-2-oxo-N-1,2,4-thiadiazol-5-yl-2,3-dihydro-1,3-benzoxazole-6-sulfonamide] | > 32 | 1040 nM |  |  |
| C=CCC(c1ccccc1)n1c(=O)oc2cc(S(=O)(=O)Nc3ncns3)ccc21 (centres unmarked) [Compound 4-13, 2-oxo-3-(1-phenylbut-3-en-1-yl)-N-1,2,4-thiadiazol-5-yl-2,3-dihydro-1,3-benzoxazole-6-sulfonamide] |  | 272 nM | 177 | 88 nM |
| CCCN1CCc2cccc(Cn3c(=O)oc4cc(S(=O)(=O)Nc5ncns5)ccc43)c2C1 [Compound 6-3, 2-oxo-3-[(2-propyl-1,2,3,4-tetrahydroisoquinolin-8-yl)methyl]-N-1,2,4-thiadiazol-5-yl-2,3-dihydro-1,3-benzoxazole-6-sulfonamide] |  | 642 nM |  |  |
| C[C@H](c1ccccc1C1(O)CNC1)n1c(=O)oc2cc(S(=O)(=O)Nc3nccs3)c(F)cc21 [Compound 43-22, 5-fluoro-3-{(1R)-1-[2-(3-hydroxyazetidin-3-yl)phenyl]ethyl}-2-oxo-N-1,3-thiazol-2-yl-2,3-dihydro-1,3-benzoxazole-6-sulfonamide] |  |  | 703 | 61 nM |
| C[C@H](c1ccccc1C1(F)CNC1)n1c(=O)oc2cc(S(=O)(=O)Nc3nccs3)c(F)cc21 [Compound 43-23, 5-fluoro-3-{(1R)-1-[2-(3-fluoroazetidin-3-yl)phenyl]ethyl}-2-oxo-N-1,3-thiazol-2-yl-2,3-dihydro-1,3-benzoxazole-6-sulfonamide] |  |  | 5541 | 4 nM |
| Cc1n[nH]cc1-c1cccc([C@@H](C)n2c(=O)oc3cc(S(=O)(=O)Nc4nccs4)c(F)cc32)c1 [Compound 43-24, 5-fluoro-3-{(1R)-1-[3-(3-methyl-1H-pyrazol-4-yl)phenyl]ethyl}-2-oxo-N-1,3-thiazol-2-yl-2,3-dihydro-l,3-benzoxazole-6-sulfonamide] |  |  | 33 | 103 nM |
| C[C@H](c1cccc(-c2ccn(C)n2)c1)n1c(=O)oc2cc(S(=O)(=O)Nc3nccs3)c(F)cc21 [Compound 43-25, 5-fluoro-3-{(1R)-1-[3-(1-methyl-1H-pyrazol-3-yl)phenyl]ethyl}-2-oxo-N-1,3-thiazol-2-yl-2,3-dihydro-1,3-benzoxazole-6-sulfonamide] |  |  | 86 | 306 nM |
| Cl.O=c1oc2cc(S(=O)(=O)Nc3nccs3)c(F)cc2n1Cc1cccc2c1CNCC2(F)F [Compound 44-5, 3-((4,4-Difluoro-1,2,3,4-tetrahydroisoquinolin-8-yl)methyl)-5-fluoro-2-oxo-N-(thiazol-2-yl)-2,3-dihydrobenzo[d]oxazole-6-sulfonamide hydrochloride] |  |  | 151 | 181 nM |
